This series in a line: Solubility under substantially physiological conditions. The format is physicochemical. The following applies: pH 5 to 7.

Experimental findings from US20060151899A1, “Process for producing drug ultramicroparticle and apparatus therefor” (priority 2004, published 2006) are described below.

Consider `NS(=O)(=O)c1ccc(S(=O)(=O)Nc2cccc3c(Cl)c[nH]c23)cc1` [N-(3-chloro-7-indolyl)-1,4-benzenedisulfonamide], for which the Solubility entry was “insoluble or slightly soluble”.
